Results published in article PMC12888920, “MMP-9 regulates disulphide isomerase activity of TGM2 to enhance fusion glycoprotein-mediated syncytium formation of respiratory syncytial virus” (Protein & Cell, 2025).

What was measured:
[1] = Cell viability assay (CellTiter-Glo) in HEp-2 cells; assay type: cell-based; conditions: human
Method: (§1) Figure 7. MMP-9-mediated TGM2 cleavage potentiates RSV–host interaction. (A) Cytotoxicity profiling. Dose-response curves of TGM2 inhibitors (ZED-1227, Cystamine, Bacitracin, E64FC26, ML359) in HEp-2 cells (72 h treatment). Viability was assessed by CellTiter-Glo assay. Data normalized to untreated controls. mean ± SD, n = 3. (B) Antiviral efficacy. Viral inhibition (FFA) in RSV A2-infected HEp-2 cells treated with TGM2 inhibitors at threefold dilution gradients: ZED-1227 (60–10 µmol/L), Cystamine (200–22.2 µmol/L), Bacitracin (500–50 µmol/L), E64FC26 (0.2–0.05 µmol/L), and ML359 (10–1.1 µmol/L). DMSO as vehicle control. mean ± SD, n = 3. (C) TGM2–F protein interaction. Co-IP analysis in HEK293T cells co-expressing TGM2 and RSV F (48 h). Immunoblots were probed with anti-TGM2, anti-F, or IgG control. Blots represent three independent experiments. (D) Binding kinetics. BLI quantification of TGM2–DS-Cav1 (RSV F prefusion conformation) interaction. The results represent three biological replicates. (E) Ternary complex formation. Co-IP of MMP-9-TGM2-F complex in HEK293T cells (48 h). GAPDH as loading control. Below the asterisk represents the objective band. Blots represent three independent experiments. (F) Impairing MMP-9/TGM2/RSV-F complex inhibits RSV infection. […] (G) Proteolytic enhancement. MMP-9-cleaved TGM2 (TGM2-44) enhances protein disulfide isomerase (PDI) activity was measured using reduced DS-Cav1. mean ± SD, n = 3. (H) Truncation functional analysis. Viral titers (FFA) in HEp-2 cells expressing MMP-9, TGM2, or cleavage fragments (TGM2-44/41) post RSV infection (MOI = 1, 72 hpi). mean ± SD, n = 3. (I) Syncytium rescue. Syncytia area quantification in TGM2 truncation-expressing cells (ImageJ software). mean ± SD, n = 3. (J) Subcellular redistribution. Confocal microscopy of HEp-2 cells co-expressing TGM2 truncations (HA/FLAG-tagged) and RSV F (72 hpi). Scale bar: 10 µm. Images represent three biological replicates. (K) F protein expression. Fluorescence intensity quantification of RSV F in (J) (ImageJ software). mean ± SD, n = 3. (L) Fusion competence assay. Syncytium formation in HEK293T cells co-expressing TGM2 truncations and RSV F/F-C37S/C69S mutants (48 h). Scale bar: 10 µm. Images represent three biological replicates. (M) Mutant validation. RSV F expression levels in (L) were quantified by ImageJ software. mean ± SD, n = 3. The results are representatively shown with three random experiments. The error bars indicate the mean ± SD of three technical replicates (n = 3). […]
(§2) (B-C) Cytotoxicity profiles in HEp-2 (B) and HBEC (C) cells. […] Viability was assessed using the CellTiter-Glo assay (G7570, Promega). […]
(§3) 95 Cell viability was evaluated using a CellTiter -Glo® Luminescent Cell Viability Assay 96 kit (G7571, Promega) according to the manufacturer’s instructions. […]

RSV A2 [2] = test: Viral inhibition (FFA) in RSV A2-infected HEp-2 cells treated with TGM2 inhibitors; assay type: cell-based, Respiratory syncytial virus; conditions: HEp-2, RSV A2; ZED-1227 60–10, Cystamine 200–22.2, Bacitracin 500–50, E64FC26 0.2–0.05, ML359 10–1.1 µmol/L
Method: Figure 7. MMP-9-mediated TGM2 cleavage potentiates RSV–host interaction. (A) Cytotoxicity profiling. Dose-response curves of TGM2 inhibitors (ZED-1227, Cystamine, Bacitracin, E64FC26, ML359) in HEp-2 cells (72 h treatment). Viability was assessed by CellTiter-Glo assay. Data normalized to untreated controls. mean ± SD, n = 3. (B) Antiviral efficacy. Viral inhibition (FFA) in RSV A2-infected HEp-2 cells treated with TGM2 inhibitors at threefold dilution gradients: ZED-1227 (60–10 µmol/L), Cystamine (200–22.2 µmol/L), Bacitracin (500–50 µmol/L), E64FC26 (0.2–0.05 µmol/L), and ML359 (10–1.1 µmol/L). DMSO as vehicle control. mean ± SD, n = 3. (C) TGM2–F protein interaction. Co-IP analysis in HEK293T cells co-expressing TGM2 and RSV F (48 h). Immunoblots were probed with anti-TGM2, anti-F, or IgG control. Blots represent three independent experiments. (D) Binding kinetics. BLI quantification of TGM2–DS-Cav1 (RSV F prefusion conformation) interaction. The results represent three biological replicates. (E) Ternary complex formation. Co-IP of MMP-9-TGM2-F complex in HEK293T cells (48 h). GAPDH as loading control. Below the asterisk represents the objective band. Blots represent three independent experiments. (F) Impairing MMP-9/TGM2/RSV-F complex inhibits RSV infection. […] (G) Proteolytic enhancement. MMP-9-cleaved TGM2 (TGM2-44) enhances protein disulfide isomerase (PDI) activity was measured using reduced DS-Cav1. mean ± SD, n = 3. (H) Truncation functional analysis. Viral titers (FFA) in HEp-2 cells expressing MMP-9, TGM2, or cleavage fragments (TGM2-44/41) post RSV infection (MOI = 1, 72 hpi). mean ± SD, n = 3. (I) Syncytium rescue. Syncytia area quantification in TGM2 truncation-expressing cells (ImageJ software). mean ± SD, n = 3. (J) Subcellular redistribution. Confocal microscopy of HEp-2 cells co-expressing TGM2 truncations (HA/FLAG-tagged) and RSV F (72 hpi). Scale bar: 10 µm. Images represent three biological replicates. (K) F protein expression. Fluorescence intensity quantification of RSV F in (J) (ImageJ software). mean ± SD, n = 3. (L) Fusion competence assay. Syncytium formation in HEK293T cells co-expressing TGM2 truncations and RSV F/F-C37S/C69S mutants (48 h). Scale bar: 10 µm. Images represent three biological replicates. (M) Mutant validation. RSV F expression levels in (L) were quantified by ImageJ software. mean ± SD, n = 3. The results are representatively shown with three random experiments. The error bars indicate the mean ± SD of three technical replicates (n = 3). Statistical analysis: one-way ANOVA with Dunnett’s post hoc test (B, F, G, H, I, K, M); unpaired two-tailed Student’s t-test (F, H, I, K, M). *P < 0.05, **P < 0.01, ***P < 0.001; ns, not significant.

RSV B18537 [3] = test: Antiviral activity (FFA) against RSV B18537 in HEp-2 cells; assay type: cell-based; conditions: human respiratory syncytial virus
Text: (§4) Figure 1. Antiviral activity of metalloproteinase inhibitors against RSV in vitro. (A) Experimental workflow for RSV A2 infection and compound treatment. (B) High-throughput screening of TargetMol L1100 library (246 host protease inhibitors targeting 10 pathways: MMPs, caspases, proteasomes, apoptosis regulators, cysteine proteases, gamma-secretase, autophagy modulators, serine proteases, DPP-4, and beta-secretase) using concentration gradients (1, 5, 10 µmol/L). HEp-2 cells were pretreated with compounds for 1 hour prior to RSV A2 infection (MOI = 0.1). Plaque formation was quantified at 72 hours post-infection (hpi) and normalized to DMSO controls. […] (G) Target overlap analysis of four MMP-9-targeting inhibitors. (H) Viral titers in supernatants of HEp-2 cells transfected with MMP-specific siRNAs (24 h) followed by RSV A2 infection (MOI = 1, 72 h). mean ± SD, n = 3. The results are representatively shown with three random experiments. The error bars indicate the mean ± SD of three technical replicates (n = 3). Statistical significance was determined by one-way ANOVA with Dunnett’s post hoc test: *P < 0.05, ***P < 0.001; ns, not significant. […]
(§5) 109 111813, MCE) and 0.1% DMSO vehicle. Primary hits (>50% CPE reduction + not
(§6) 110 overtly cytotoxic) underwent dose -response validation (0.00004 –10 μM) to generate
(§7) 111 EC50 curves (GraphPad Prism 8.0) .
(§8) 112 Evaluation of in vitro antiviral activity
(§9) 113 Compound inhibitor treatments: HEp-2 cells (1.3×10⁴/well) or HBEC (1.8×10⁴/well)
(§10) 114 were pretreated with test compounds for 1 h before RSV A2/B18537 infection
(§11) 115 (MOI=0.1 or 0.3). Viral inhibition was quantified at 72 hpi via FFA. Fixed cells (4%
(§12) 116 PFA) were permeabilized (0.3% Triton X-100), stained with anti-RSV-FITC
(§13) 118 Fluorescent foci were normalized to nuclear counts (ImageJ software) for EC 50
(§14) 119 determination via four-parameter logistic regression (GraphPad Prism 8.0). Data
(§15) 120 represent triplicate experiments. […]

RSV A2 [4] = test: Antiviral activity (FFA) against RSV A2 in HEp-2 cells; assay type: cell-based; conditions: human respiratory syncytial virus
Text: as §4, §6, §7, §8, §9, §10, §11, §12, §13, §14, §15

RSV B18537 [5] = test: Antiviral activity (FFA) against RSV B18537 in HBEC; assay type: cell-based; conditions: human respiratory syncytial virus
Text: as §4, §8, §9, §10, §11, §12, §13, §14, §15

RSV A2 [6] = test: High-throughput antiviral screening of protease inhibitor library against RSV A2 in HEp-2 cells; assay type: cell-based, Respiratory syncytial virus; conditions: RSV A2, MOI = 0.1, 1, 5, 10 µmol/L, 72 hpi
Text: Figure 1. Antiviral activity of metalloproteinase inhibitors against RSV in vitro. (A) Experimental workflow for RSV A2 infection and compound treatment. (B) High-throughput screening of TargetMol L1100 library (246 host protease inhibitors targeting 10 pathways: MMPs, caspases, proteasomes, apoptosis regulators, cysteine proteases, gamma-secretase, autophagy modulators, serine proteases, DPP-4, and beta-secretase) using concentration gradients (1, 5, 10 µmol/L). HEp-2 cells were pretreated with compounds for 1 hour prior to RSV A2 infection (MOI = 0.1). Plaque formation was quantified at 72 hours post-infection (hpi) and normalized to DMSO controls. […] (G) Target overlap analysis of four MMP-9-targeting inhibitors. (H) Viral titers in supernatants of HEp-2 cells transfected with MMP-specific siRNAs (24 h) followed by RSV A2 infection (MOI = 1, 72 h). mean ± SD, n = 3. The results are representatively shown with three random experiments. The error bars indicate the mean ± SD of three technical replicates (n = 3). Statistical significance was determined by one-way ANOVA with Dunnett’s post hoc test: *P < 0.05, ***P < 0.001; ns, not significant.
104 High-throughput antiviral screening
105 The L1100 protease inhibitor library (246 compounds; L1100, TargetMol) was
106 screened against RSV A2 in HEp -2 cells. Compounds (10 mM DMSO stocks) were
107 robotically dispensed 1 h pre -infection at final concentrations of 1, 5, 10 μM.
108 Infection rates (72 hpi) were normalized to PC786 (1 μM; positive control; HY -
as §5, §6, §7, §8, §9, §10, §11, §12, §13, §14, §15

RSV A2 [7] = test: Antiviral activity (FFA) against RSV A2 in primary human bronchial epithelial cells (HBEC); assay type: cell-based; conditions: human respiratory syncytial virus, Epithelial cell
Text: as §4, §8, §9, §10, §11, §12, §13, §14, §15

HEp-2 cells = test: Cell viability assay (CellTiter-Glo) in HEp-2 cells; assay type: cell-based
Method: as §1, §2, §3

With `NCCSSCCN` [Cystamine] the CC50 at 72 h [1] was 387 µM and the “inhibition of RSV replication (antiviral efficacy)” value (RSV A2 [2]) was “did not inhibit RSV replication”.
Molecule `C[C@H]1c2cccc(O)c2C(=O)C2=C(O)[C@]3(O)C(=O)C(C(N)=O)=C(O)[C@@H](N(C)C)[C@@H]3[C@@H](O)[C@@H]21` [Doxycycline] has an EC50 (RSV B18537 [3]; HEp-2, RSV B18537, MOI = 0.1, 72 hpi, read-out: EC50) of 727 nM, an EC50 (RSV A2 [4]; HEp-2, RSV A2, MOI = 0.1, 72 hpi, read-out: EC50) of 846 nM and an EC50 (RSV B18537 [5]; HBEC, RSV B18537, MOI = 0.3, 72 hpi, read-out: EC50) of 811 nM. The “inhibition of RSV infection in HEp-2 cells” value (RSV A2 [6]) was “significant dose-dependent inhibition” and the EC50 (RSV A2 [7]; HBEC, RSV A2, MOI = 0.3, 72 hpi, read-out: EC50) was 1300 nM.
With `CCCCCCCC/C=C1\C=C(C(F)(F)F)c2cc(O)c(O)cc21` [E64FC26] the CC50 (HEp-2 cells) was 800 nM and the “inhibition of RSV replication (antiviral efficacy)” value (RSV A2 [2]) was “strong antiviral efficacy”.
With `CC(C)=CCc1c(O)c(CC=C(C)C)c2oc3c(O)ccc(O)c3c(=O)c2c1O` [Gartanin] the EC50 (RSV B18537 [3]; HEp-2) was 738 nM, the EC50 (RSV A2 [4]; HEp-2) was 726 nM and the EC50 (RSV B18537 [5]) was 733 nM. For the same molecule, the “inhibition of RSV infection in HEp-2 cells” value (RSV A2 [6]) was “significant dose-dependent inhibition” and the EC50 (RSV A2 [7]) was 625 nM.
